In EP0737689A1, “NOVEL 6-SUBSTITUTED OXA- OR […]” (TEIKOKU HORMONE MFG. CO., LTD., priority 1993, dated 1995):
pIC50: −log10 of the molar value.

Columns and labels:
aromatase [1] = molecular target: T1, aromatase (Homo sapiens, UniProt P11511); assay: Assay of aromatase inhibition action (in vitro), 3H2O release from [1β-3H]androstenedione; format: biochemical; conditions: freeze dried human placental microsomes, 2 µM [1β-3H]androstenedione, 180 µM NADPH, pH 7.5, 37°C, 20 minutes
T1 construct: Human placental microsomes (ones subjected to centrifugation at 105,000 X g for 60 minutes) were prepared according to the method of Ryan; from tissue; host or cells: human placenta (microsomal fraction)
T1 sequence (P11511 1-503): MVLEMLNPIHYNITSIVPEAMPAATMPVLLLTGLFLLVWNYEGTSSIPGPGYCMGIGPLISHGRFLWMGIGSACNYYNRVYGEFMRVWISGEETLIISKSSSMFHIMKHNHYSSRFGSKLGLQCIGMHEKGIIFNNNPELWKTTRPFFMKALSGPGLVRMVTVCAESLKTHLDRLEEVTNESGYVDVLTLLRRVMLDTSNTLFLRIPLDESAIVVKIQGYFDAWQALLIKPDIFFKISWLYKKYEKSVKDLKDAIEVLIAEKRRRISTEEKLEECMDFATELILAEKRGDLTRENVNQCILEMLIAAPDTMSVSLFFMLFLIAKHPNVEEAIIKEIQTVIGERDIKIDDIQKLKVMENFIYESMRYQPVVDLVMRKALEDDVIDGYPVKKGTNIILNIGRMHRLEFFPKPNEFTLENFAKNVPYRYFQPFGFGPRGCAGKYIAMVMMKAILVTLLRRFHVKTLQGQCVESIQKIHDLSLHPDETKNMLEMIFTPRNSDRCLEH
Description: Human placental microsomes (ones subjected to centrifugation at 105,000 X g for 60 minutes) were prepared according to the method of Ryan (The Journal of Biological Chemistry 234, 268-272, 1959). The microsomes were washed twice with 0.5 mM dithiothreitol solution, freeze dried, and stored at -20°C until use.
An aromatase inhibition action was assayed according to the method developed by Tompson and Siiteri (The Journal of Biological Chemistry 249, 5373-5378, 1974). Namely, the method comprises quantitatively determining ^3H2O released when [1β-^3H]androstenedione is aromatized. The experiment, when the enzyme was used, was conducted in 67 mM phosphate buffer (pH 7.5) so that the amount of the final incubation solution could be 0.5 ml. The incubation solution contains 180 µM of NADPH, 2 µM of [1β-^3H]androstenedione, 150 µg of freeze dried human placental microsomes, 25 µl of methanol and a test compound at various concentrations. Incubation was conducted in the air at 37°C for 20 minutes, 3 ml of chloroform was added to discontinue the reaction, and then the mixture was stirred for 40 seconds. The mixture was then centrifuged at 700 X g for 10 minutes, 0.3 ml of the aqueous solution was sampled from the supernatant, the scintillation mixture was added, and the amount of ^3H2O formed was measured.

aromatase [2] = molecular target: T2, aromatase (Rattus norvegicus, UniProt P22443); assay: Assay of aromatase inhibition action (in vivo), inhibition of DHEAS-induced cornification of the vaginal smear; conditions: orally once a day for 4 days, hypophysectomized mature female rats, 16 mg/kg DHEAS, cornification relative to solvent administration group
T2 construct: mature female rats after one week from hypophysectomy were used; from tissue; host or cells: whole animal (hypophysectomised mature female rats)
T2 sequence (P22443 1-508): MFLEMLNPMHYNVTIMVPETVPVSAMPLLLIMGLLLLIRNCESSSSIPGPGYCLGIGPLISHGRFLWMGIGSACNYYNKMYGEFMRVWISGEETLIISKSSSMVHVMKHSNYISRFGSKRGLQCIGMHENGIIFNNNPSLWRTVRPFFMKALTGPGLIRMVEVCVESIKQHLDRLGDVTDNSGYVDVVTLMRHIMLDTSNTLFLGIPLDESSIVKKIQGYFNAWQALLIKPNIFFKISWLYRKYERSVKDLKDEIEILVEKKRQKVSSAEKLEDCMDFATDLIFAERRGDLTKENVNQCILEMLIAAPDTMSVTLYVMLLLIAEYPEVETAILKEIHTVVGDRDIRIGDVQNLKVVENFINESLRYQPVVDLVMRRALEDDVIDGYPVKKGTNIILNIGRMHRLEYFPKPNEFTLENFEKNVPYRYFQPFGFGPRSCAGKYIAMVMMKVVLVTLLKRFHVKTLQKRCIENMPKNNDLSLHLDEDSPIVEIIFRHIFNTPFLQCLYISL
Description: An aromatase inhibition action was assayed according to the method developed by G.H.Deckers and A.H.W.M.Schuurs (Journal of Steroid Biochemistry 32, 625-631, 1989).
Namely, mature female rats after one week from hypophysectomy were used with one group of 8 to 10 animals. Either 16 mg/kg of dehydroepiandrosterone sulfate (DHEAS) and 5 ml/kg of a solvent (physiological saline containing 2 % polysorbate 80), or DHEAS and a test compound suspended in the solvent were orally administered once a day for successive 4 days. For 6 days from the next day of start of the administration, the vaginal smear was sampled, and observed under a microscope after being stained with Giemsa staining solution. Cornification of the vaginal smear due to DHEAS was observed from 3 days after the initial administration, and its action disappeared 6 days thereafter. Therefore, the cornification smear number was expressed as the total of from the third day to the fifth day from the start of administration. An cornification inhibition action by the test compound was expressed as a rate to cornification in the solvent administration group.
Since cornification of the vaginal smear is caused by estrogens biosynthetically produced from DHEAS by aromatase, inhibition of the cornification is observed when aromatase is inhibited.

In the case of `CS[C@@H]1C[C@H]2[C@@H]3CCOC[C@@]3(C)CC[C@@H]2[C@@]2(C)C=CC(=O)C=C12` [Example 10, 6β-(methylthio)-D-homo-17-oxaandrosta-1,4-dien-3-one], the pIC50 (aromatase [1]) was 6.10.
In the case of `C[C@]12C=CC(=O)C=C1[C@@H](SC#N)C[C@@H]1[C@@H]2CC[C@]2(C)C(=O)OCC[C@@H]12` [Example 13 (6α), 6α-thiocyanato-D-homo-17-oxaandrosta-1,4-diene-3,17a-dione], the “Inhibition rate (%)” value (aromatase [2]; dose 5 mg/kg/day) was 81.3%.
For `CC(=O)S[C@H]1C[C@@H]2[C@H](CC[C@]3(C)C(=O)OCC[C@@H]23)[C@@]2(C)C=CC(=O)C=C12` [Example 15, 6α-(acetylthio)-D-homo-17-oxaandrosta-1,4-diene-3,17a-dione], the pIC50 (aromatase [1]) was 5.80 and the “Inhibition rate (%)” value (aromatase [2]; dose 2 mg/kg/day) was 90.9%.
With `C[C@]12CC[C@H]3[C@@H](C[C@H](N=[N+]=[N-])C4=CC(=O)C=C[C@@]43C)[C@@H]1CCOC2` [Example 17, 6α-azido-D-homo-17-oxaandrosta-1,4-dien-3-one] the “Inhibition rate (%)” value (aromatase [2]; dose 5 mg/kg/day) was 100%.
With `CC(=O)S[C@H]1C[C@H]2[C@@H]3CCOC[C@@]3(C)CC[C@@H]2[C@@]2(C)C=CC(=O)C=C12` [Example 19, 6α-(acetylthio)-D-homo-17-oxaandrosta-1,4-dien-3-one] the “Inhibition rate (%)” value (aromatase [2]; dose 5 mg/kg/day) was 72.3%.
With `CO[C@@H]1C[C@@H]2[C@H](CC[C@]3(C)C(=O)OCC[C@@H]23)[C@@]2(C)C=CC(=O)C=C12` [Example 31, 6β-methoxy-D-homo-17-oxaandrosta-1,4-diene-3,17a-dione] the “Inhibition rate (%)” value (aromatase [2]; dose 5 mg/kg/day) was 100%.
